# Values of other authors, collected in publication PMC12689647, “Evaluation of bromadiolone combined with ciprofloxacin, vitamin D, aspirin, and cinnamon as an apoptosis-mediated rodenticide strategy” (Scientific Reports, 2025).
# Columns and labels:
# CYP1A = details: co-administration, many animal species; cited from earlier work
# Albino rats = details: repeated doses (1 g/kg); cited from earlier work
# G361 HMM cells = details: cited from earlier work
structure (smiles),measurement,setting,value
O=C(O)c1cn(C2CC2)c2cc(N3CCNCC3)c(F)cc2c1=O [Ciprofloxacin],effect on CYP1A activity in hepatic microsomes,CYP1A,inhibits CYP1A activity
"CC(=O)Oc1ccccc1C(=O)O [acetylsalicylic acid, Acetylsalicylic acid]",toxic effects of repeated doses,Albino rats,"varying degrees of gastroenteritis, hepatitis, nephritis, pulmonary edema"
O=c1ccc2cc(O)c(O)cc2o1 [esculetin],effect on apoptotic signaling molecules,G361 HMM cells,activated apoptotic signaling molecules such as caspase-3 and PARP
